These results are taken from PubChem BioAssay AID256 (DTP/NCI, 2004).

This assay relates to CD2F1 mice, L1210 leukemia ip, survival T/C. The assay is described as follows: NCI In Vivo Anticancer Drug Screen. Data for tumor model L1210 Leukemia (intraperitoneal) in CD2F1 (CDF1) mice. The conditions noted are these: higher = longer survival. Summed up: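 Tumor-bearing mice (transplanted tumor) were split into treated and vehicle control groups, and the measured endpoint of each treated group was divided by that of its vehicle controls.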

[1] abbreviates: endpoint: mean survival time, dose: 100.0 mg/kg/injection, schedule: Q04DX003 (ip), vehicle: saline.
Where [2] appears, read: endpoint: mean survival time, dose: 200.0 mg/kg/injection, schedule: Q04DX003 (ip), vehicle: saline.
The mark [3] stands for this setting: endpoint: mean survival time, dose: 400.0 mg/kg/injection, schedule: Q04DX003 (ip), vehicle: saline.
The mark [4] stands for this setting: endpoint: mean survival time, dose: 100.0 mg/kg/injection, schedule: Q04DX002 (ip), vehicle: saline with Tween-80.
Where [5] appears, read: endpoint: mean survival time, dose: 200.0 mg/kg/injection, schedule: Q04DX002 (ip), vehicle: saline with Tween-80.
[6] abbreviates: endpoint: mean survival time, dose: 400.0 mg/kg/injection, schedule: Q04DX002 (ip), vehicle: saline with Tween-80.
The mark [7] stands for this setting: endpoint: mean survival time, dose: 100.0 mg/kg/injection, schedule: Q04DX003 (ip), vehicle: saline with Tween-80.
Setting [8] is: endpoint: mean survival time, dose: 200.0 mg/kg/injection, schedule: Q04DX003 (ip), vehicle: saline with Tween-80.
Where [9] appears, read: endpoint: mean survival time, dose: 400.0 mg/kg/injection, schedule: Q04DX003 (ip), vehicle: saline with Tween-80.
Setting [10] is: endpoint: mean survival time, dose: 100.0 mg/kg/injection, schedule: Q01DX001 (ip), vehicle: saline with Tween-80.
[11] abbreviates: endpoint: mean survival time, dose: 200.0 mg/kg/injection, schedule: Q01DX001 (ip), vehicle: saline with Tween-80.
[12] abbreviates: endpoint: mean survival time, dose: 400.0 mg/kg/injection, schedule: Q01DX001 (ip), vehicle: saline with Tween-80.
Where [13] appears, read: endpoint: mean survival time, dose: 50.0 mg/kg/injection, schedule: Q04DX003 (ip), vehicle: saline.
The mark [14] stands for this setting: endpoint: mean survival time, dose: 100.0 mg/kg/injection, schedule: Q01DX009 (ip), vehicle: saline.
The mark [15] stands for this setting: endpoint: mean survival time, dose: 100.0 mg/kg/injection, schedule: Q01DX001 (ip), vehicle: saline.
The mark [16] stands for this setting: endpoint: mean survival time, dose: 200.0 mg/kg/injection, schedule: Q01DX001 (ip), vehicle: saline.
The mark [17] stands for this setting: endpoint: mean survival time, dose: 400.0 mg/kg/injection, schedule: Q01DX001 (ip), vehicle: saline.

Values joined by “and” are separate entries in the source; they are usually repeats but may differ in a detail not shown here. Equal entries are not always repeated. Inconclusive results and toxic doses are left out.

Turning to `O=C(Cc1ccccn1)NCC(O)c1ccccc1` (centres undefined), the T/C was 89 % of control under setting [1], 102 % of control under setting [2] and 100 % of control under setting [3].
As to `O=C1Cc2ccccc2C(=O)N1`, the T/C runs as follows: (endpoint: mean survival time, dose: 100.0 mg/kg/injection, schedule: Q01DX009 (ip), vehicle: saline sonified) 97 % of control; (endpoint: mean survival time, dose: 200.0 mg/kg/injection, schedule: Q01DX009 (ip), vehicle: saline sonified) 98 % of control; (endpoint: mean survival time, dose: 400.0 mg/kg/injection, schedule: Q01DX009 (ip), vehicle: saline sonified) 89 % of control.
Take `CC(C)OC(=O)COc1ccc(F)cc1F`: the T/C is 92 % of control under setting [4], 95 % of control under setting [5] and 89 % of control under setting [6].
Consider `COC(=O)C1CC2C=CC1CC2` (centres undefined), for which the T/C is, setting by setting: under setting [1], 97 % of control; under setting [2], 105 % of control; under setting [3], 95 % of control.
As for `Nc1cccc(-c2nc3ncnc(N)c3[nH]2)c1`, the T/C under setting [7] is 94 % of control, the T/C under setting [8] was 94 % of control and the T/C under setting [9] was 93 % of control.
`O=C1C2=C(C(=O)C3=C1C1CCC3C1)C1CCC2C1`: the T/C (endpoint: mean survival time, dose: 25.0 mg/kg/injection, schedule: Q04DX002 (ip), vehicle: saline with Tween-80) is 105 % of control; the T/C (endpoint: mean survival time, dose: 50.0 mg/kg/injection, schedule: Q04DX002 (ip), vehicle: saline with Tween-80) was 101 % of control; the T/C under setting [4] is 108 % of control.
With `CCOC(=O)Nc1ccc2nnn(C3OC(CO)C(O)C3O)c2n1` (centres undefined), the T/C (endpoint: mean survival time, dose: 12.5 mg/kg/injection, schedule: Q01DX005 (ip), vehicle: water) is 94 % of control; the T/C (endpoint: mean survival time, dose: 25.0 mg/kg/injection, schedule: Q01DX005 (ip), vehicle: water) was 102 % of control; the T/C (endpoint: mean survival time, dose: 50.0 mg/kg/injection, schedule: Q01DX005 (ip), vehicle: water) is 98 % of control; the T/C (endpoint: mean survival time, dose: 100.0 mg/kg/injection, schedule: Q01DX005 (ip), vehicle: water) was 102 % of control; the T/C (endpoint: mean survival time, dose: 200.0 mg/kg/injection, schedule: Q01DX005 (ip), vehicle: water) was 94 % of control; the T/C (endpoint: mean survival time, dose: 400.0 mg/kg/injection, schedule: Q01DX005 (ip), vehicle: water) was 94 % of control.
On to `Cc1c2cnccc2c(C)c2c1c1ccccc1n2CCO`, for which the T/C was 123 % of control under setting [7]; 117 % of control under setting [8]; 170 % of control (endpoint: mean survival time, dose: 400.0 mg/kg/injection, schedule: Q01DX009 (ip), vehicle: saline with Tween-80); 162 % of control under setting [9].
With `C/C=C1/C=CC2c3[nH]c4ccccc4c3CCN2C1` (centres undefined), the T/C is 93 % of control (endpoint: mean survival time, dose: 20.0 mg/kg/injection, schedule: Q01DX001 (ip), vehicle: saline with Tween-80); 98 % of control (endpoint: mean survival time, dose: 40.0 mg/kg/injection, schedule: Q01DX001 (ip), vehicle: saline with Tween-80); 90 % of control (endpoint: mean survival time, dose: 80.0 mg/kg/injection, schedule: Q01DX001 (ip), vehicle: saline with Tween-80).
Turning to `CCN(CC)n1c(=O)[nH]n(CC)c1=O`, the T/C is, setting by setting: under setting [10], 101 % of control; under setting [4], 101 % of control; under setting [11], 97 % of control; under setting [5], 93 % of control; under setting [12], 100 % of control; under setting [6], 101 % of control.
As to `CC[N+]1(C)C2CCC1CC(O)C2` (centres undefined), the T/C by setting is: (endpoint: mean survival time, dose: 100.0 mg/kg/injection, schedule: Q04DX002 (ip), vehicle: saline) 105 % of control; (endpoint: mean survival time, dose: 200.0 mg/kg/injection, schedule: Q04DX002 (ip), vehicle: saline) 102 % of control.
As to `Cc1ccc(P(=O)(O)O)c([N+](=O)[O-])c1`, the T/C under setting [13] is 105 % of control, the T/C under setting [1] is 95 % of control and the T/C under setting [2] was 105 % of control.
With `CCCCCCCCCCCCCCCCNC(=O)C[N+](C)(C)Cc1ccccc1`, the T/C is 100 % of control (endpoint: mean survival time, dose: 5.0 mg/kg/injection, schedule: Q04DX003 (ip), vehicle: saline with Tween-80) and 101 % of control (endpoint: mean survival time, dose: 10.0 mg/kg/injection, schedule: Q04DX003 (ip), vehicle: saline with Tween-80).
Turning to `COC(OC)c1[nH]c(=S)[nH]c(=O)c1Cc1cc(C)ccc1C`, the T/C (endpoint: mean survival time, dose: 100.0 mg/kg/injection, schedule: Q04DX003 (ip), vehicle: saline sonified) is 101 % of control; the T/C (endpoint: mean survival time, dose: 200.0 mg/kg/injection, schedule: Q04DX003 (ip), vehicle: saline sonified) was 95 % of control; the T/C (endpoint: mean survival time, dose: 400.0 mg/kg/injection, schedule: Q04DX003 (ip), vehicle: saline sonified) is 101 % of control.
Consider `O=[N+]([O-])c1cccc(S(=O)(=O)O)c1.[Fe]`, for which the T/C reads like this: (endpoint: mean survival time, dose: 50.0 mg/kg/injection, schedule: Q01DX009 (ip), vehicle: saline) 103 % of control; under setting [14], 91 % of control.
Turning to `CNC1CCC(C(=O)O)CC1` (centres undefined), the T/C under setting [14] is 107 % of control; the T/C (endpoint: mean survival time, dose: 200.0 mg/kg/injection, schedule: Q01DX009 (ip), vehicle: saline) is 103 % of control; the T/C (endpoint: mean survival time, dose: 400.0 mg/kg/injection, schedule: Q01DX009 (ip), vehicle: saline) is 96 % of control.
As to `CC(=O)NCCNC(C)=O`, the T/C reads like this: under setting [1], 91 % of control; under setting [2], 100 % of control; under setting [3], 91 % of control.
Take `C=CCOc1ccc(Cl)cc1Cl`: the T/C runs as follows: (endpoint: mean survival time, dose: 37.5 mg/kg/injection, schedule: Q01DX009 (ip), vehicle: saline with Tween-80) 93 % of control; (endpoint: mean survival time, dose: 75.0 mg/kg/injection, schedule: Q01DX009 (ip), vehicle: saline with Tween-80) 101 % of control; (endpoint: mean survival time, dose: 150.0 mg/kg/injection, schedule: Q01DX009 (ip), vehicle: saline with Tween-80) 97 % of control.
As to `COc1ccc(Cc2cncc3cc(O)c(OC)cc23)cc1O`, the T/C is, setting by setting: under setting [15], 102 % of control; under setting [16], 96 % of control; under setting [17], 96 % of control.
Consider `CC1CC(C)(C)N=C(Cc2ccccc2)O1` (centres undefined), for which the T/C reads like this: under setting [10], 101 % of control; under setting [11], 93 % of control; under setting [12], 96 % of control.
Turning to `COC(=O)c1ccc(OC(=O)Nc2ccc(N(CCCl)CCCl)cc2)cc1`, the T/C (endpoint: mean survival time, dose: 50.0 mg/kg/injection, schedule: Q01DX001 (ip), vehicle: Klucel (hydroxypropylcellulose) (HPC)) was 95 % of control.
Turning to `O=S(=O)(/C=C\c1ccccc1)Oc1ccccc1`, the T/C was 100 % of control under setting [15]; 96 % of control under setting [1]; 100 % of control under setting [16]; 95 % of control under setting [2]; 93 % of control under setting [17]; 90 % of control under setting [3].
Turning to `COc1ccc(CCNC2C3CC4CC(C3)CC2C4)cc1OC` (centres undefined), the T/C (endpoint: mean survival time, dose: 25.0 mg/kg/injection, schedule: Q04DX003 (ip), vehicle: saline with Tween-80) was 112 % of control; the T/C (endpoint: mean survival time, dose: 50.0 mg/kg/injection, schedule: Q04DX003 (ip), vehicle: saline with Tween-80) is 101 % of control; the T/C under setting [7] was 101 % of control.
Consider `COC1OC(CO)C(O)C(OC)C1OC` (centres undefined) (tested in a mixture with another compound), for which the T/C is, setting by setting: under setting [15], 100 % of control; under setting [16], 100 % of control; under setting [17], 100 % of control.
`NC(=O)CC[n+]1ccccc1`: the T/C by setting is: (endpoint: mean survival time, dose: 12.5 mg/kg/injection, schedule: Q04DX003 (ip), vehicle: saline) 97 % of control; (endpoint: mean survival time, dose: 25.0 mg/kg/injection, schedule: Q04DX003 (ip), vehicle: saline) 97 % of control; under setting [13], 96 % of control.
Consider `C1CCC(C2CCCC[N-]2)[N-]C1.CC([NH-])C(=O)O.[Cl][Pt]` (centres undefined), for which the T/C by setting is: (endpoint: median survival time, dose: 10.0 mg/kg/injection, schedule: Q04DX003 (ip), vehicle: saline) 107 % of control; (endpoint: median survival time, dose: 20.0 mg/kg/injection, schedule: Q04DX003 (ip), vehicle: saline) 105 % of control; (endpoint: median survival time, dose: 40.0 mg/kg/injection, schedule: Q04DX003 (ip), vehicle: saline) 110 % of control; (endpoint: median survival time, dose: 80.0 mg/kg/injection, schedule: Q04DX003 (ip), vehicle: saline) 97 % of control and 104 % of control; (endpoint: median survival time, dose: 160.0 mg/kg/injection, schedule: Q04DX003 (ip), vehicle: saline) 108 % of control; (endpoint: median survival time, dose: 320.0 mg/kg/injection, schedule: Q04DX003 (ip), vehicle: saline) 96 % of control.
On to `CC(=O)COc1ccc(C)cc1`, for which the T/C by setting is: under setting [7], 105 % of control; under setting [8], 96 % of control; under setting [9], 98 % of control.
